Measurements reported in ChEMBL document CHEMBL5244247, “Natural and synthetic coumarins as antileishmanial agents: A review” (Eur J Med Chem, 2020).
Converted amounts (≈) assume the structure as drawn. “And” between values parts separate entries of the source, which are not always exact repeats. Equal values may be shown once.

How the values were obtained:
Leishmania major [1] = test: Antileishmanial activity against promastigote form of Leishmania major assessed as inhibition of parasite growth by MTT colorimetric cell viability assay; type: functional, organism-based
Leishmania amazonensis [2] = test: Antileishmanial activity against promastigote form of Leishmania amazonensis; type: functional, organism-based
Leishmania braziliensis [3] = test: Antileishmanial activity against promastigote form of Leishmania braziliensis; type: functional, organism-based; settings: for IC50: Leishmania braziliensis
Leishmania infantum [4] = test: Antileishmanial activity against promastigote form of Leishmania infantum; type: functional, organism-based
Leishmania amazonensis [5] = test: Antileishmanial activity against Leishmania amazonensis infected in BALB/c mouse assessed as reduction in parasite load at 10 mg/kg, sc administered for 14 days relative to control; type: functional; design: scale not given: the % may be the effect or the level left; settings: time 14 day
Leishmania amazonensis [6] = test: Antileishmanial activity against amastigote form of Leishmania amazonensis assessed as parasite growth inhibition; type: functional, organism-based
Leishmania amazonensis [7] = test: Antileishmanial activity against promastigote form of Leishmania amazonensis assessed as parasite growth inhibition incubated for 72 hrs by neubauer counting chamber analysis; type: functional, organism-based
Leishmania amazonensis [8] = test: Antileishmanial activity against promastigote form of Leishmania amazonensis assessed as inhibition of parasite growth at 200 uM incubated for 72 hrs by neubauer counting chamber analysis relative to control; type: functional
Leishmania donovani [9] = test: Antileishmanial activity against amastigote form of Leishmania donovani; type: functional, organism-based
Leishmania donovani [10] = test: Antileishmanial activity against promastigote form of Leishmania donovani; type: functional, organism-based
Leishmania amazonensis [11] = test: Antileishmanial activity against promastigote form of Leishmania amazonensis assessed as inhibition of parasite growth at 100 uM incubated for 72 hrs by neubauer counting chamber analysis relative to control; type: functional
Leishmania mexicana = test: Antileishmanial activity against promastigote form of Leishmania mexicana; type: functional, organism-based
[12] = molecular target: Acetylcholinesterase (Homo sapiens) (UniProt P22303); test: Inhibition of AChE (unknown origin) assessed as inhibition zone by Ellman's colorimetric method
Leishmania major [13] = test: Antileishmanial activity against promastigote form of Leishmania major; type: functional, organism-based
Leishmania chagasi = test: Antileishmanial activity against promastigote form of Leishmania chagasi; type: functional, organism-based
Leishmania major [14] = test: Antileishmanial activity against amastigote form of Leishmania major; type: functional, organism-based
Leishmania panamensis = test: Antileishmanial activity against intracellular Leishmania panamensis amastigotes infected in human U-937 cells assessed as inhibition at 20 ug/mL incubated for 72 hrs by flow cytometry relative to control; type: functional
Leishmania amazonensis [15] = test: Antileishmanial activity against promastigote form of Leishmania amazonensis assessed as parasite growth inhibition incubated for 72 hrs by regression analysis; type: functional, organism-based
Leishmania donovani [16] = test: Antileishmanial activity against amastigote form of Leishmania donovani at 50 uM assessed as inhibition of parasite growth relative to control; type: functional
Leishmania amazonensis [17] = test: Antileishmanial activity against amastigote form of Leishmania amazonensis assessed as parasite growth inhibition incubated for 72 hrs by regression analysis; type: functional, organism-based
Leishmania amazonensis [18] = test: Antileishmanial activity against intracellular Leishmania amazonensis MHOM/BR/75/Josefa amastigotes infected in BALB/c mouse peritoneal macrophages assessed as parasite growth inhibition incubated for 24 hrs by regression analysis; type: functional, organism-based; settings: Peritoneal macrophage
Leishmania braziliensis [19] = test: Antileishmanial activity against amastigote form of Leishmania braziliensis; type: functional
[20] = Selectivity index, ratio of CC50 for cytotoxicity against mouse J774G8 cells to IC50 for antileishmanial activity against intracellular Leishmania amazonensis MHOM/BR/75/Josefa amastigotes infected in BALB/c mouse peritoneal macrophages; type: toxicity, cell-based; settings: read-out: Ratio CC50/IC50
Leishmania infantum [21] = test: Antileishmanial activity against amastigote form of Leishmania infantum; type: functional, organism-based
Peritoneal macrophage = test: Cytotoxicity against mouse peritoneal macrophage; type: functional, cell-based
Leishmania major [22] = test: Antileishmanial activity against promastigote form of Leishmania major assessed as inhibition at 0.1 uM incubated for 72 hrs by MTT assay relative to control; type: functional
Leishmania major [23] = test: Antileishmanial activity against promastigote form of Leishmania major assessed as inhibition at 100 uM incubated for 72 hrs by MTT assay relative to control; type: functional
Leishmania major [24] = test: Antileishmanial activity against promastigote form of Leishmania major assessed as inhibition of parasite growth by Litchfield-Wilcoxon method; type: functional, organism-based
Leishmania major [25] = test: Antiproliferative activity against promastigote form of Leishmania major assessed as lethal dose; type: functional; settings: read-out: LD50 (the source's name)
Leishmania major [26] = test: Antileishmanial activity against promastigote form of Leishmania major assessed as inhibition incubated for 72 hrs by MTT assay; type: functional, organism-based

Sequence of Acetylcholinesterase (Homo sapiens) (P22303 whole entry): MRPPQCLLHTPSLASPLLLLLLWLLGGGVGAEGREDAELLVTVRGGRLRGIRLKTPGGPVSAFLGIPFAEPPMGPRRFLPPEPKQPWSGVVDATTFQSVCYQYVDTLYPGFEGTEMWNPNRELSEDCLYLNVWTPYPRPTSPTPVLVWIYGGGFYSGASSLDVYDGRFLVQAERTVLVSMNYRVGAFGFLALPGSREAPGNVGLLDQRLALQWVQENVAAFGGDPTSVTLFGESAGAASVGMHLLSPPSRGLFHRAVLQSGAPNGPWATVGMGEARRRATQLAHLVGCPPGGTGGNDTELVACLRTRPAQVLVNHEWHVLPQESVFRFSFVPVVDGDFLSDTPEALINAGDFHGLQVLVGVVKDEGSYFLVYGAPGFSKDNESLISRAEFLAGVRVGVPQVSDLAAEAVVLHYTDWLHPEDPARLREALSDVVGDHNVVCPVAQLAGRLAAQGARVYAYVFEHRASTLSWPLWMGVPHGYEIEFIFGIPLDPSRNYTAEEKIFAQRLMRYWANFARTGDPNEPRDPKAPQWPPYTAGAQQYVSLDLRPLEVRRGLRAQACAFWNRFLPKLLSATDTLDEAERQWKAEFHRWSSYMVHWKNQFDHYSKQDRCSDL

## C=C1CC(C/C(C)=C/COc2ccc3ccc(=O)oc3c2O)OC1=O (stereo unspecified) [CLAUSLACTONE E]
Leishmania major [1]
  IC50: 9.8 µM

## C=CC(C)(C)c1cc2cc3c(cc2oc1=O)OC(C)(C)[C@@H](O)C3
Leishmania amazonensis [2]
  IC50: 35.8 µM
Leishmania braziliensis [3]
  IC50: 32.1 µM
Leishmania infantum [4]
  IC50: 27.5 µM
Leishmania amazonensis [5]
  Activity: 95.6%

## CC(C)=CCOc1ccc2c(-c3ccccc3)cc(=O)oc2c1
Leishmania amazonensis [6]
  IC50: 58.1 µM
Leishmania amazonensis [7]
  IC50: 21.4 µM

## COc1cc2ccc(=O)oc2c2c1OC(C)(C)C=C2
Leishmania amazonensis [7]
  IC50: 70 µM
Leishmania amazonensis [8]
  inhibition at 200 µM: 100%

## COc1cc(O[C@@H]2O[C@H](COC(C)=O)[C@@H](OC(C)=O)[C@H](OC(C)=O)[C@H]2OC(C)=O)c2c(-c3ccc(OC(C)=O)c(OC(C)=O)c3)cc(=O)oc2c1
Leishmania donovani [9]
  IC50: > 90 µM
Leishmania donovani [10]
  IC50: 12.4 µM

## CC1(O)CC(CC(C)(O)C(O)COc2ccc3ccc(=O)oc3c2O)OC1=O (stereo unspecified)
Leishmania major [1]
  IC50: > 100 µM

## COc1cc(OC)c2ccc(=O)oc2c1OC
Leishmania amazonensis [7]
  IC50: 57.7 µM
Leishmania amazonensis [11]
  inhibition at 100 µM: 91%

## COc1cc2ccc(=O)oc2cc1OC [SCOPARONE]
Leishmania amazonensis [2]
  IC50: > 50 µM
Leishmania mexicana
  EC50: 9.11 µg/mL (≈ 44.2 µM)
Leishmania donovani [10]
  EC50: 27.5 µg/mL (≈ 133 µM)
[12]
  inhibition zone (IZ): 8 mm
Leishmania major [13]
  EC50: 14.4 µg/mL (≈ 69.7 µM)
Leishmania braziliensis [3]
  IC50: > 50 µM
Leishmania infantum [4]
  IC50: > 50 µM
Leishmania chagasi
  EC50: 21.4 µg/mL (≈ 104 µM)

## C=C1CC(CC(C)(O)C(O)COc2ccc3ccc(=O)oc3c2O)OC1=O (stereo unspecified)
Leishmania major [1]
  IC50: 12.1 µM

## COc1ccc2ccc(=O)oc2c1CC=C(C)C [OSTHOLE]
Leishmania major [14]
  IC50: 14.9 µg/mL (≈ 61.2 µM)

## Cc1cc(=O)oc2cc(OCCCOc3cc(Cl)ccc3Oc3ccc(Cl)cc3Cl)ccc12
Leishmania panamensis
  inhibition at 20 µg/mL: 34%

## O=c1cc(-c2ccccc2)c2c(O)cc(O)cc2o1
Leishmania amazonensis [15]
  IC50: 60.2 µM

## N#CCC1=NN=C(c2cc3ccccc3oc2=O)C(CC(=O)c2ccccc2)O1 (stereo unspecified)
Leishmania donovani [16]
  inhibition at 50 µM: 36%

## CCCc1cc(=O)oc2c(C(=O)C(C)CC)c(O)c(CC=C(C)C)c(O)c12 (stereo unspecified)
Leishmania amazonensis [15]
  IC50: 30.1 µM

## CCC(C)C(=O)c1c(O)c(CC=C(C)C)c(O)c2c(-c3ccccc3)cc(=O)oc12 (stereo unspecified)
Leishmania amazonensis [17]
  IC50: 0.88 µg/mL (≈ 2.16 µM)
Leishmania amazonensis [18]
  IC50: 14.3 µM
Leishmania braziliensis [19]
  LD50: 22 µg/mL
Leishmania braziliensis [19]; Leishmania braziliensis, read-out: LD50 (the source's name)
  LC50: 29 µg/mL (≈ 71.3 µM)
Leishmania braziliensis [3]
  LD50: 23.2 µg/mL and 60 µg/mL
[20]
  selectivity ratio: 4.4
Leishmania amazonensis [15]
  IC50: 3 µg/mL and 7.4 µM

## CC1=CC[C@@H]2C(C)(C)[C@H](O)CC[C@@]2(C)[C@@H]1COc1ccc2ccc(=O)oc2c1 [FESELOL]
Leishmania infantum [21]
  IC50: 6.8 µM
Peritoneal macrophage
  IC50: 8 µM

## Cc1cccc2cc(C(c3c(O)c4ccccc4oc3=O)N3CCCCC3)c(Cl)nc12 (stereo unspecified)
Leishmania donovani [10]
  IC50: 9.9 µM

## Cc1cccc(-n2c(-c3cc4ccccc4oc3=O)cs/c2=N/NC(=O)c2cc3ccccc3oc2=O)c1
Leishmania major [22]
  inhibition at 0.1 µM: 53.7%
Leishmania major [23]
  inhibition at 100 µM: 62.7%

## C/C(=C\COc1cc(O)cc2oc(=O)ccc12)C/C=C/C(C)(C)OO
Leishmania major [1]
  IC50: 26.2 µM

## COc1cc2ccc(=O)oc2cc1O [SCOPOLETIN]
Leishmania amazonensis [2]
  IC50: > 50 µM
Leishmania braziliensis [3]
  IC50: > 50 µM
Leishmania infantum [4]
  IC50: > 50 µM

## CN(C)c1ccc(C(c2c(O)c3ccccc3oc2=O)c2c(O)c3ccccc3oc2=O)cc1
Leishmania donovani [10]
  IC50: 150 µg/mL

## CC(C)=CCC/C(C)=C/COc1ccc2ccc(=O)oc2c1
Leishmania major [24]
  IC50: 17.1 µM
Leishmania major [25]
  LC50: 30 µM

## O=c1cc(-c2ccccc2)c2ccc(O[C@@H]3O[C@H](CO)[C@@H](O)[C@H](O)[C@H]3O)cc2o1
Leishmania amazonensis [7]
  IC50: 91.8 µM

## O=c1oc2ccccc2cc1-c1nnc2n1N=C(c1ccc(Cl)c(Cl)c1)CS2
Leishmania major [26]
  IC50: 0.89 µM

## Cc1cc(=O)oc2cc(OCCCCCOc3cc(Cl)ccc3Oc3ccc(Cl)cc3Cl)ccc12
Leishmania panamensis
  inhibition at 20 µg/mL: 50%

## O=c1oc2ccccc2cc1-c1nnc2n1N=C(c1ccc(Cl)cc1)CS2
Leishmania major [26]
  IC50: 2.86 µM
